# In US20190297888A1, “FUNGICIDAL COMPOUNDS AND MIXTURES FOR FUNGAL CONTROL IN CEREALS” (Dow AgroSciences LLC, priority 2016, published 2019):
# Experiments:
# Type in all cases: in vivo
# [1] = system: Zymoseptoria tritici (SEPTTR); assay: Field assessment of Compound I and penthiopyrad on leaf blotch of wheat (AUDPC % control); details: AUDPC-based, 3 field trials
# From the text: (§1) Treatments consisting of the compound of Formula I and fungicide compound penthiopyrad were applied either using individually or as a two-way mixture of penthiopyrad with the compound of Formula I. The compound of Formula I was applied with Agnique BP-420 (50% w/w at 0.3% v/v) at 75 and 150 g ai/ha and Penthiopyrad (Vertisan) was applied at 125 and 200 g ai/ha. Commercial standards used in the studies were Fluxapyroxad (Imtrex), applied at 100 g ai/ha, and Metconazole+Fluxapyroxad (Librax), applied at 161 g ai/ha.
# Fungicidal treatments containing the compound of Formula I and penthiopyrad, either individually or as a two-way mixture, were assessed against leaf spot of wheat (SEPTTR) in three separate field trials. In the first trial, fungicidal treatments were applied at B33 (3% infection at application on L3) growth stage of winter wheat (TRZAW, Dinosor variety). The treatments were part of an experimental trial designed as a randomized complete block with four replications and a plot of approximately 1×6 m. Treatments were applied at water volume of 200 L/ha, using a backpack plot sprayer (BKPCKENG, FLATFANA nozzle) and pressurized at 200 kPa.
# In the second trial, fungicidal treatments were applied twice at B32 (curative, 25% infection at application on L5) and B37-39 (5% infection at application on L3) growth stages of winter wheat (TRZAW, Consort variety). The treatments were part of an experimental trial designed as a randomized complete block with four replications and a plot of approximately 1×2 m. Treatments were applied at water volume of 200 L/ha, using a backpack plot sprayer (BKPCKAIR, Flat fan nozzle) and pressurized at 210 kPa.
# In the final trial, fungicidal treatments were applied twice at B32 (protective, 15% infection at application on L6) and B37-39 (12% infection at application on L5) growth stages of winter wheat (TRZAW, Smaragd variety). The treatments were part of an experimental trial designed as a randomized complete block with four replications and a plot of approximately 2×3 m. Treatments were applied at water volume of 200 L/ha, using a backpack plot sprayer (BICYCAIR, FLATFANA nozzle) and pressurized at 220 kPa.
# Disease severity (percentage of visual diseased foliage on whole plot or leaves) in […] field trials was recorded following EPPO PP1/26 guideline prescriptions. Area under the disease progress curve (AUDPC) was calculated for each plot in both trials using the sets of recorded severity data. Relative AUDPC (% control based on AUDPC) was calculated as percent of the nontreated control. Final results for the control of leaf spot of wheat by the compound of Formula I, penthiopyrad and mixtures are reported as an average of the relative AUDPC calculated over all three field trials. […]
# [2] = system: Puccinia triticina (PUCCRT); assay: Field assessment of Compound I and penthiopyrad on brown rust of wheat (AUDPC % control); details: AUDPC-based, 2 field trials
# From the text: as §1
# Fungicidal treatments containing the compound of Formula I and penthiopyrad, either individually or as a two-way mixture, were assessed against brown rust of wheat (PUCCRT) in two separate field trials. In the first trial, fungicidal treatments were applied at B37-39 (protectant, approximately 0% infection at application) growth stages of wheat (TRZAW, MV Vanek variety) under natural infection of brown rust. The treatment was part of an experimental trial designed as a randomized complete block with four replications and a plot of approximately 2×3 m. Fungicidal treatments were applied at a water volume of 200 L/ha, using a backpack plot sprayer with a TEEJET QJ90-2XTT110 015 Nozzle.
# In the second trial, fungicidal treatments containing the compound of Formula I and penthiopyrad, either individually or as a two-way mixture, were applied at B33 (curative, approximately 6.6% infection at application) growth stage of wheat (TRZAW, Miradoux variety) under natural infection of brown rust. The treatments were part of an experimental trial designed as a randomized complete block with four replications and a plot of approximately 2×3 m. Fungicidal treatments were applied at a water volume of 200 L/ha, using a backpack plot sprayer with a HARDI MD 110-02 Nozzle.
# (§2) Disease severity (percentage of visual diseased foliage on whole plot or leaves) in both field trials was recorded following EPPO PP1/26 guideline prescriptions. Area under the disease progress curve (AUDPC) was calculated for each plot in both trials using the sets of recorded severity data. Relative AUDPC (% control based on AUDPC) was calculated as percent of the nontreated control. Final results for the control of brown rust of wheat by the compound of Formula I, penthiopyrad and mixtures are reported as an average of the relative AUDPC calculated over all […] field trials. Statistical analysis was done according to ANOVA and Tukey's test (p=0.10).
# [3] = system: Puccinia striiformis (PUCCST); assay: Field assessment of Compound I and penthiopyrad on yellow rust of wheat (AUDPC % control); details: AUDPC-based, 2 field trials
# From the text: as §1
# Fungicidal treatments containing the compound of Formula I and penthiopyrad, either individually or as a two-way mixture, were assessed against yellow rust of wheat (PUCCST) in two separate field trials. In the first trial, fungicidal treatments were applied twice at B31-32 (early curative, 2% infection at application on L3) and B37-39 (0% infection at application on L) growth stages of winter wheat (TRZAW, Fairplay variety). The treatments were part of an experimental trial designed as a randomized complete block with four replications and a plot of approximately 1×6 m. Treatments were applied at water volume of 200 L/ha, using a backpack plot sprayer (BKPCKENG, F110-015 Hardi (3) Flat fan nozzle) and pressurized at 200 kPa.
# In the second trial, fungicidal treatments containing the compound of Formula I and penthiopyrad, either individually or as a two-way mixture, were applied twice at B31-32 (early curative, 5% infection on L5 at application) and B37-39 (early curative, 5% infection on L1 and L2 at application) growth stages of wheat (TRZAW, Torch variety). The treatment was part of an experimental trial designed as a randomized complete block with four replications and a plot of approximately 2×3 m. Treatments were applied at water volume of 200 L/ha, using a backpack precision plot sprayer (BKCKAIR, F110-03 Hypro (4) Flat fan nozzle) and pressurized at 300 kPa.
# as §2, with “yellow” for “brown”
structure (smiles),measurement,setting,value
"CC(C)CC(C)c1sccc1NC(=O)c1cn(C)nc1C(F)(F)F (stereo not drawn) [Penthiopyrad, N-[2-(1,3-dimethylbutyl)-3-thienyl]-1-methyl-3-(trifluoromethyl)-1H-pyrazole-4-carboxamide]",SEPTTR % Control,[1]; rate 125 g ai/ha,42.3%
same,SEPTTR % Control,[1]; rate 200 g ai/ha,51.4%
same,PUCCRT % Control,[2]; rate 125 g ai/ha,84.2%
same,PUCCRT % Control,[2]; rate 200 g ai/ha,85.1%
same,PUCCST % Control,[3]; rate 125 g ai/ha,39.6%
same,PUCCST % Control,[3]; rate 200 g ai/ha,46.5%
